# Experimental data published in article PMC8597757, “Pharmacokinetic and Safety Profile of the Novel HIV Nonnucleoside Reverse Transcriptase Inhibitor MK-8507 in Adults without HIV” (Antimicrobial Agents and Chemotherapy, 2021).
# Tested on: CYP3A4
# Assay: Midazolam drug-drug interaction assessment
# Details: 2 mg midazolam with third once-weekly 400-mg dose of MK-8507 vs midazolam alone
# Method: Study 2 (protocol MK-8507-002) was a randomized, serial, 3-panel (A to C), single- and multiple-QW rising-dose trial. Single doses of 400, 800, and 1,200 mg MK-8507 or placebo tablet formulation were administered on day 1 to panels A, B, and C, respectively, to continue dose escalation beyond the dose range in study 1. Following a washout period of 3 weeks, the multiple-dose portion of the trial began. Participants in panels A, B, and C received QW doses of 100, 200, or 400 mg MK-8507 or placebo for 3 weeks (i.e., on days 22, 29, and 36), respectively. […] The PK profile of midazolam following a single oral dose alone or after multiple oral dose administration of MK-8507 was also evaluated. […]
# Plasma samples collected for midazolam assay were analyzed by Syneos Health (Québec, Canada). […] The lower limit of quantitation was 20.00 pg/mL, and the analytical range was 20.00 to 20,000.00 pg/mL.
# PK parameter values were calculated by noncompartmental analyses using the software Phoenix WinNonlin Professional (version 6.3) (Certara, Princeton, NJ, USA). […] AUC0–∞ and AUC0–168hr were calculated using the linear-trapezoidal method for ascending concentrations and the log-trapezoidal method for descending concentrations (linear up/log down). […]
smiles,measurement,value
"Cc1ncc2n1-c1ccc(Cl)cc1C(c1ccccc1F)=NC2 [Midazolam, midazolam]",decrease in midazolam AUC when coadministered with MK-8507,12%
same,decrease in midazolam Cmax when coadministered with MK-8507,19%
